The test system of data set [1] is A549, H23, H2122 and H1975 NSCLC cells. Description: MTS cell viability/proliferation assay in NSCLC cell lines, 72 h. Type of data set: cell-based, human. On the procedure:
FIG. 5. Parthenolide analogues JD201-JD210 suppress human lung tumor cell proliferation in vitro. A549, H23, H2122 and H1975 NSCLC cells were treated with increasing concentrations of drugs (0.1-100 μM). After 72 h cell viability was assessed by MTS assay. Viable cells are expressed as percentage of vehicle control. P<0.01 (**), versus control group, P<0.05 (*), versus control group. Natural occurring parthenolide (PTL), parthenolide analogues JD201 (DMAPT)-JD210. Parthenolide analogues inhibit female (H1975, H2122) and male (H23, A549) NSCLC cell proliferation.
To determine the effect of parthenolide analogues in lung cancer cell proliferation we tested two male (A549, H23) and two female (H2122, H1975) lung cancer cell lines with increasing concentrations of parthenolide analogues (0.1, 1, 10 and 100 μM) for 72 hours.

Data set [2] concerns NF-κB/p65 phosphorylation. Description: Western blot of phospho-NF-κB/p65 in H23 cells. Type of data set: cell-based, human. On the procedure: FIG. 7. […] After 60 min Western blot were performed using anti-phospho-NF-κB/p65 antibody (Cell Signaling Technology #3031). Membranes were stripped and re-probed with antibody against total NF-κB/p65 (CST #3037).
After 60 min, Western blots were done using anti-phospho-NFκB/p65 antibody (Cell Signaling).
Upon confirming that parthenolide analogues can inhibit NSCLC cell proliferation, induce cell death and enhance the cytotoxicity of chemotherapy, we began to investigate potential cellular mechanisms that may underlie this process. For example, we used Western Blot methods to determine phosphorylation of the p65 subunit of NF-κB. H23 cells were incubated in the presence of vehicle control or 10 μM concentration of the parthenolide derivatives (JD 201, 202, 203, 204) for 60 min. After treatment, cells were collected and homogenized in lysis buffer. Extracts were electrophoresed on 4-20% gradient SDS-PAGE gels and transferred to nitrocellulose membranes. Blots were probed with anti-phospho-NF-κB/p65 and NF-κB/p65 for a loading control.

For data set [3], the system named is NF-κB/p65 phosphorylation. Briefly: Western blot of cisplatin-mediated phospho-NF-κB/p65 in A549 cells. The class given is cell-based, human. Particulars: 5 μM cisplatin and/or 20 μM analog, time course. The protocol: FIG. 9. […] Western blots were then performed using anti-phospho-NF-κB/p65 antibody (Cell Signaling Technology #3036) and anti-phospho-IκBα antibody (CST #2859). Membranes were then stripped and reprobed with antibody against total NF-κB/p65 (CST #3987) and antibody against total IκBα (CST #4814).
A general note: In western blotting, separated proteins are transferred to a membrane and probed.

In data set [4] the test system is MCF-7/TAMR breast cancer cells. Briefly: Proliferation of tamoxifen-resistant MCF-7/TMR (TAM-R) cells. Particulars: analogue at varying doses plus tamoxifen 1×10^-7 M, 48 hours; P<0.01. Type of data set: cell-based, human. The protocol: MCF-7/CON cells are tamoxifen-sensitive, while MCF-7/HER2 and MCF-7/TMR cells are known to be tamoxifen-resistant (28,61,66,67). Except for TMR (64,68), cells were routinely cultured in RPMI 1640 media with 10% heat-inactivated FBS (28,64,66). For E2-free conditions, media were changed 48 h before studies to phenol-red free RPMI 1640 with 1% dextran-coated, charcoal-treated (DCC) FBS. TMR cells were derived by long-term continuous exposure of cells to 10^−7 M 4-hydroxy-tamoxifen by established methods (64,68) and were maintained with 10^−7 M 4-hydroxytamoxifen in medium. Levels of ERα and HER2 expression in these several cell lines were determined by use of Western blot methods.
Assays for Tumor Cell Proliferation. Breast tumor cells were be grown in RPMI 1640 media with 10% heat-inactivated FBS (except for TMR and TZR cells as noted above). For estrogen-free conditions, medium were changed 48 h before studies to phenol-red free RPMI 1640 with 1% dextran-coated, charcoal-treated (DCC) FBS, then treated with selected reagents. Cell counts and viability tests (Trypan blue) will be done every 24 hr for […]. After 48-72 hr, proliferation was assessed by cell counts.

For another data set, the system named is SKBR3/TZR cells. Briefly: Proliferation of trastuzumab-resistant SKBR3/TZR cells. The conditions noted are these: 0.1 to 50 micromolar alone or with trastuzumab, 72 hours. The class given is cell-based, human. More on the design: dose or concentration left out as unconfirmed. On the procedure:
Assays for Tumor Cell Proliferation. […] Cell counts and viability tests (Trypan blue) will be done every 24 hr for […]. After 48-72 hr, proliferation was assessed by cell counts.
The human breast cancer cell line SKBR3 (ATCC) was obtained from the American Type Culture Collection (ATCC). Unless otherwise stated, monolayer cultures of SKBR3 were maintained in Dulbeccos' Modified Eagle's Media (DMEM):F12 medium with 10% FBS.

In a further data set the test system is ELT3 cells. Description: Proliferation of ELT3 cells (TSC-related disease model). The class given is cell-based, rat. Particulars: 72 hours, IIA medium with 1% FBS, cell counts. The protocol: (§1) FIG. 19. […] Cells were counted and plated and then treated with parthenolide analogue JD203 or control for 72 hours using IIA medium with 1% FBS. At the end of the experiments, cell proliferation was quantitated based on cell counts. Experimental results (n=3) shown as % control (mean±SE).
(§2) We have tested inhibitory activity of parthenolide analogues using cell models for TSC-related proliferative disease. The ELT3 cells are a TSC2-null smooth muscle-derived cell line from a rat uterine leiomyoma and often used as a model for lymphangioleiomyomatosis (LAM) and other TSC-related proliferative diseases (75,76). Angiomyolipoma cells (AML) that have inactivating mutations in both alleles of the TSC2 gene were also used as an alternate cell model (77,78). Cells were routinely cultured in IIA complete medium (50% DMEM, 50% F-12, […] NaHCO3, […] FeSO4, 50 nM sodium selenite, […] insulin, 200 nM hydrocortisone, […] transferrin, 1 nM triiodothyronine, 10 mU/ml vasopressin, 10 nM cholesterol, 10 ng/ml epidermal growth factor) containing 15% FBS. For study of proliferation, cells were incubated for 3 days in IIA medium containing 1% FBS. Results of these experiments indicate that parthenolides may also have utility in the treatment of TSC-related proliferative diseases that are not classified as malignancies.

Data set [5] has as its system angiomyolipoma (AML) cells. Description: Proliferation of angiomyolipoma (AML) cells. Type of data set: cell-based. The conditions noted are these: 72 hours, IIA medium with 1% FBS, cell counts. The protocol:
as §1, §2

A further data set is described as follows: Aqueous solubility. The class given is physicochemical.
The next data set relates to cancer cells. Briefly: Structure-activity study of antitumor activity. The conditions noted are these: compared to other known parthenolide derivatives such as DMAPT. The source says:
We have developed a set of novel analogues of parthenolide which have both improved aqueous solubility and antitumor properties. An extensive structure-activity study was done to investigate parthenolide and its analogues. […] These water-soluble compounds, for example analog JD206, may be conjugated to sugars or peptides that may be selectively targeted to cancer cells, particularly cancer stem cells.

In the next data set the test system is MCF-7/HER2 cells. Briefly: Proliferation of tamoxifen-resistant MCF-7/HER2 cells (cell counts). Particulars: 72 hours.

“Also recorded” adds a separate entry of the source.

Procedure for MCF-7/HER2 cells: Assays for Tumor Cell Proliferation. […] Cell counts and viability tests (Trypan blue) will be done every 24 hr for 2-33 days. After 48-72 hr, proliferation was assessed by cell counts.

For the molecule `C/C1=C/CC[C@@]2(C)OC2[C@H]2OC(=O)[C@@H](CN(CCO)CCO)[C@@H]2CC1.O=C(O)/C=C/C(=O)O` (stereo partly drawn) [JD203, (1aR,7aS,8R,10aS,Z)-8-((Bis(2-hydroxyethyl)amino)methyl)-1a,5-dimethyl-2,3,6,7,7a,8,10a, 10b-octahydrooxireno[2′,3′:9,10]cyclodeca[1,2-b]furan-9(1aH)-one, fumaric acid salt], the “growth inhibition at 10 μM” value in data set [1] (10 μM, A549, H23, H2122, H1975) is listed as “Significant growth inhibition”. Also, the “growth inhibition at 100 μM” value in data set [1] (100 μM, A549, H23, H2122, H1975) is given as “Significant growth inhibition”. Moreover, in data set [1] (FIG. 5, 0.1-100 μM), the “inhibitory activity relative to other analogues” value is “greater inhibitory activity than compounds 205 and 207”. In data set [2] (10 μM, 60 min (FIG. 7)), the “phosphorylation of the p65 subunit of NF-κB” value is “reduced phosphorylation of the p65 subunit of NF-κB; also recorded: inhibit phosphory-lation of NF-κB/p65”. The “phosphorylation of NF-κB/p65” value in data set [2] (10 µM, 60 min (FIG. 13)) is reported as “inhibit phosphorylation of NF-κB/p65”. In addition, in data set [3], the “cisplatin-mediated phosphorylation of NF-κB/p65” value is given as “inhibit cisplatin-mediated phosphorylation of NF-κB/p65”. Moreover, the “proliferation of MCF-7/TAMR cells, combination with tamoxifen” value in data set [4] was “enhanced blockade of tumor cell proliferation; also recorded: promotes antitumor effects of tamoxifen”. The “proliferation of SKBR3/TZR cells” value with SKBR3/TZR cells was “reduces proliferation of SKBRS/TZR cells alone and in combination with trastuzumab”. Moreover, the “proliferation of ELT3 cells” value with ELT3 cells was “inhibits proliferation”. Besides, in data set [5], the “proliferation of angiomyolipoma (AML) cells” value is on record as “inhibits proliferation”. Moreover, in “Aqueous solubility”, the “water solubility compared to DMAPT (JD201)” value is reported as “improved water solubility”. Further, the “anticancer activity compared to DMAPT (JD201)” value in the data set with cancer cells was “strong anticancer activity”. Also, the “proliferation of MCF-7/HER2 cells” value in the data set with MCF-7/HER2 cells (0.1-50 micromolar, cell counts, P<0.001 vs controls) was “dose-dependent (0.1-50 micromolar) reduction in proliferation”. Also, in the data set with MCF-7/HER2 cells (analogue 0.1 to 50 micromolar with tamoxifen 1×10^-7 M, P<0.01), the “proliferation of MCF-7/HER2 cells, combination with tamoxifen” value is recorded as “greater reduction in cell proliferation than treatment with the analogue alone”.

For the origin of these results see patent US9512138B2, “Compositions and methods for treating cancer” (The Regents of the University of California, priority 2012, dated 2016).
